From ChEMBL document CHEMBL2150866, “Irreversible 4-Aminopiperidine Transglutaminase 2 Inhibitors for Huntington's Disease” (ACS Med Chem Lett, 2012)

Assays:
[1] = Half life in mouse plasma at 1 uM; format: ADME, cell-free
[2] = target: T1, Protein-glutamine gamma-glutamyltransferase K (Homo sapiens, UniProt P22735); test: Inhibition of human TGM1
T1 sequence (P22735 whole entry): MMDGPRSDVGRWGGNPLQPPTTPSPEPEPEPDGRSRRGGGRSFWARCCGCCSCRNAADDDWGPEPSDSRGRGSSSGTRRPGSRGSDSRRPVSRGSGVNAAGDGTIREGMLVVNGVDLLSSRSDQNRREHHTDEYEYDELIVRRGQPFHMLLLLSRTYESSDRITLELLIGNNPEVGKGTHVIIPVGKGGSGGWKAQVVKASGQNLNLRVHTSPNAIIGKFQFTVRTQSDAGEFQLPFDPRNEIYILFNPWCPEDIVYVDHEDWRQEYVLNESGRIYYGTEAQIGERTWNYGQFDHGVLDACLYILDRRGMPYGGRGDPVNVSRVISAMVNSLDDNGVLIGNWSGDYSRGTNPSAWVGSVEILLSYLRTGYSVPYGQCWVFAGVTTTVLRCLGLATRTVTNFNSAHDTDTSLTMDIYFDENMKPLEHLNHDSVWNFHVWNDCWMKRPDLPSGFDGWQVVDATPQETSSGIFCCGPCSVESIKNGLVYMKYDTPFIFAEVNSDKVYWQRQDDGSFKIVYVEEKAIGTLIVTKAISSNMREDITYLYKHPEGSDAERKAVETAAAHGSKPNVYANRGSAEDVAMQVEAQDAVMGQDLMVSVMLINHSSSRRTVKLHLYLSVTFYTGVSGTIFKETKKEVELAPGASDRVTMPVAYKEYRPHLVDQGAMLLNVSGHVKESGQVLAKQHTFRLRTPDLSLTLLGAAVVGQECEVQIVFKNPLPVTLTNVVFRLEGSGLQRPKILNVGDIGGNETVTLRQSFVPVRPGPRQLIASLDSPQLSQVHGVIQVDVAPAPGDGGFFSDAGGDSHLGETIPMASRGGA

[3] = target: T2, Protein-glutamine gamma-glutamyltransferase 6 (Homo sapiens, UniProt O95932); test: Inhibition of human TGM6
T2 sequence (O95932 whole entry): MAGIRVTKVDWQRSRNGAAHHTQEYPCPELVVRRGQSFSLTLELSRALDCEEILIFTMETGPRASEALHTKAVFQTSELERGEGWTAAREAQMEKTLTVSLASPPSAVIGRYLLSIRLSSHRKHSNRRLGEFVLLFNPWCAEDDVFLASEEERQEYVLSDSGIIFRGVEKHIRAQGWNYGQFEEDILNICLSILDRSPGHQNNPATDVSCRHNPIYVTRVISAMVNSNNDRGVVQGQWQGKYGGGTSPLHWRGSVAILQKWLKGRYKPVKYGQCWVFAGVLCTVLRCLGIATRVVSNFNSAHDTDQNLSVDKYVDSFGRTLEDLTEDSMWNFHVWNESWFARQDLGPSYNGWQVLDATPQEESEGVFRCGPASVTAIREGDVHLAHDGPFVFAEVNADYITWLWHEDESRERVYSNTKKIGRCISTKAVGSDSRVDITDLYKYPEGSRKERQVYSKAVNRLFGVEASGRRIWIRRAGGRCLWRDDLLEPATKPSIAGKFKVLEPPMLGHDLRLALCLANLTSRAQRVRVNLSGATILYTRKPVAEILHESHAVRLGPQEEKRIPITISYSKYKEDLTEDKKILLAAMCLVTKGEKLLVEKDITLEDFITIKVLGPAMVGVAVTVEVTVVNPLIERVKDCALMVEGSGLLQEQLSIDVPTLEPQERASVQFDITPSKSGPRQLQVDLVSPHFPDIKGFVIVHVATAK

[4] = target: T3, Coagulation factor XIII A chain (Homo sapiens, UniProt P00488); test: Inhibition of human factor-13A
T3 sequence (P00488 whole entry): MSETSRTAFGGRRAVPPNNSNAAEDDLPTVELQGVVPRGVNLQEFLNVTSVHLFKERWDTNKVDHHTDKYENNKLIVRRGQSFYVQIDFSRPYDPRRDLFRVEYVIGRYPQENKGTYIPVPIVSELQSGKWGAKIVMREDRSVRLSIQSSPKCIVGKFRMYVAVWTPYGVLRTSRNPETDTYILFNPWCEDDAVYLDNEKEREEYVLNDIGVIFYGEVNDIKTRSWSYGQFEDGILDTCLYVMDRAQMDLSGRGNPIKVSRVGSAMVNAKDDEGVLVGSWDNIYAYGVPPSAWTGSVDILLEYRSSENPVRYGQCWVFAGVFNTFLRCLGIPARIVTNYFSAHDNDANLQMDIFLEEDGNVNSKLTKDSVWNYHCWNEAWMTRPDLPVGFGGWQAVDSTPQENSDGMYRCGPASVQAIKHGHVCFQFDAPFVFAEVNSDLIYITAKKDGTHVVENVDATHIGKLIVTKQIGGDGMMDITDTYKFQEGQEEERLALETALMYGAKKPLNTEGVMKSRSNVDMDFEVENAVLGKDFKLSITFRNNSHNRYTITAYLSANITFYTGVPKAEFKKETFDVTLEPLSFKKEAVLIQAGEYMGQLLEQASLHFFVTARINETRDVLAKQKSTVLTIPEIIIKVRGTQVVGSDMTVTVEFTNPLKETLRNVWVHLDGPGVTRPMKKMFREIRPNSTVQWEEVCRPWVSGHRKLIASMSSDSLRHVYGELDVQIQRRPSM

[5] = target: T4, Protein-glutamine gamma-glutamyltransferase 2 (Mus musculus, UniProt P21981); test: Inhibition of mouse TGM2
T4 sequence (P21981 whole entry): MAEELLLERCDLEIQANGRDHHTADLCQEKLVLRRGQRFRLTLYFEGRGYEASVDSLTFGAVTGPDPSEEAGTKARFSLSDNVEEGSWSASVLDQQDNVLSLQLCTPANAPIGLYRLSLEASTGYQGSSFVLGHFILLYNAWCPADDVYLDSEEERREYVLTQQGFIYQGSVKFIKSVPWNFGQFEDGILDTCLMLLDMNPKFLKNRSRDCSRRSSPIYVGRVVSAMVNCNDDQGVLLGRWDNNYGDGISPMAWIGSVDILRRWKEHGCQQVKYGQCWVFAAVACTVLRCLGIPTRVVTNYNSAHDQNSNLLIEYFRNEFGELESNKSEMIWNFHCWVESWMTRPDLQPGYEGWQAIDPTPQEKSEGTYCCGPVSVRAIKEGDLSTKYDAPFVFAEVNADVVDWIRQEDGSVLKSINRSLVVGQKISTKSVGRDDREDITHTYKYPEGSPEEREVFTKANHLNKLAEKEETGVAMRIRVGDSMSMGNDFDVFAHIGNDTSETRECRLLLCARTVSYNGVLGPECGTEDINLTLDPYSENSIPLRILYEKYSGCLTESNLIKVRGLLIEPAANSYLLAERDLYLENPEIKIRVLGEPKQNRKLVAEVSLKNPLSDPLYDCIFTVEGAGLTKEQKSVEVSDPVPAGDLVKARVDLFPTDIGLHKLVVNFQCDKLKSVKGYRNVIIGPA

[6] = Half life in human plasma at 1 uM; format: ADME, cell-free
[7] = target: T5, Protein-glutamine gamma-glutamyltransferase (Homo sapiens, UniProt P21980); test: Inhibition of human TGM2
T5 sequence (P21980 whole entry): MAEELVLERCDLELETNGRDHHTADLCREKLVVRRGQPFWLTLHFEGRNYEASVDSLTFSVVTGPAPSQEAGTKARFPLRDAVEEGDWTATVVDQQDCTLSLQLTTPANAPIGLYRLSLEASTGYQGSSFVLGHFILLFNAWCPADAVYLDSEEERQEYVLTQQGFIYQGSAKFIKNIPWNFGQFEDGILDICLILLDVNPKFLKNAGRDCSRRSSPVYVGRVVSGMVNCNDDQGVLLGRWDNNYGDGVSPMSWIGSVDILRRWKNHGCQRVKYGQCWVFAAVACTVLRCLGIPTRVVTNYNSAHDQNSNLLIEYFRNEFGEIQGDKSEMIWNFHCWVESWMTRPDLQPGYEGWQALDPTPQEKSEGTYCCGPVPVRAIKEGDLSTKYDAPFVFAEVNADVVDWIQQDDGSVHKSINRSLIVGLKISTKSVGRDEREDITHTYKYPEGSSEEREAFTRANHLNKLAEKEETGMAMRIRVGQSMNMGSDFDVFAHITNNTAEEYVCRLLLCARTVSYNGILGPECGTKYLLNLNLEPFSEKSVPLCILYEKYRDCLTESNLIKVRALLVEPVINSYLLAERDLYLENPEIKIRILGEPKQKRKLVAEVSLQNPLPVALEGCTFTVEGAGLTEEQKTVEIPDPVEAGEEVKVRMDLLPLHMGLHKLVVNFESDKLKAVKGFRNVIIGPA

[8] = Kinetic solubility of the compound in phosphate buffered saline at pH 7.4; format: physicochemical; conditions: read-out: Kinetic_solubility
[9] = Intrinsic clearance in mouse liver microsomes at 1 uM; format: ADME, Microsome; conditions: read-out: CLH
[10] = Intrinsic clearance in human liver microsomes at 1 uM; format: ADME, Microsome; conditions: read-out: CLH
[11] = Apparent permeability from apical to basolateral side of wild type MDCK cells; format: ADME, cell-based, Canis lupus familiaris; conditions: dog
[12] = Efflux ratio of permeability in wild type MDCK cells; format: ADME, cell-based, Canis lupus familiaris; conditions: dog
[13] = target: T6, Protein-glutamine gamma-glutamyltransferase E (Homo sapiens, UniProt Q08188); test: Inhibition of human TGM3
T6 sequence (Q08188 whole entry): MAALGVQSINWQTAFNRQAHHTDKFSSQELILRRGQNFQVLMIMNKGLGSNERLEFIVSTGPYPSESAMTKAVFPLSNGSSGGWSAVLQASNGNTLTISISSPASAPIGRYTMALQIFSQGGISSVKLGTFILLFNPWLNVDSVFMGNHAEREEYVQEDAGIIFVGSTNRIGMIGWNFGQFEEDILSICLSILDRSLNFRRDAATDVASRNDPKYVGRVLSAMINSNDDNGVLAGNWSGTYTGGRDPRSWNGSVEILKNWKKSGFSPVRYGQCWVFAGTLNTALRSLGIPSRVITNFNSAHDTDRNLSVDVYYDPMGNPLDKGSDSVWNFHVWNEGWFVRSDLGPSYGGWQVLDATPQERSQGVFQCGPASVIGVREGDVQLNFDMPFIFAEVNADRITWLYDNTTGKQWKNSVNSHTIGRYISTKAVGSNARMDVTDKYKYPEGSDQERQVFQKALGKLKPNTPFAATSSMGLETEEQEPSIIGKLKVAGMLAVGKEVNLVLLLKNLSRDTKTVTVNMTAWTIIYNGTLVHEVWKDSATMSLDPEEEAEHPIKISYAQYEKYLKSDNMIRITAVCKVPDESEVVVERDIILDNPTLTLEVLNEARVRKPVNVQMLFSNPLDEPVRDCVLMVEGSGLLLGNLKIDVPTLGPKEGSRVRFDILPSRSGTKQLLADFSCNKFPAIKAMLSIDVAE

[14] = Chemical stability of the compound in phosphate buffer at pH 7.4 assessed as GSH adduct formation after 120 hrs; format: physicochemical; conditions: pH 7.4, 120 h

Row | SMILES | half-life at 1 µM [1] [h] | IC50 [2] [nM] | IC50 [3] [nM] | IC50 [4] [nM] | IC50 [5] [nM] | half-life at 1 µM [6] [h] | IC50 [7] [nM] | solubility kinetic [8] [µg/mL] | microsomal CLint at 1 µM [9] [µL/min/mg] | microsomal CLint at 1 µM [10] [µL/min/mg] | Papp A→B [11] [×10⁻⁶ cm/s] | efflux ratio [12] | IC50 [13] [nM] | Stability [14]
1 | C=CC(=O)NC1CCN(S(=O)(=O)c2ccc(C(=O)NCCc3ccc(OC)cc3)cc2)CC1 | > 6 | 1200 | 34000 | 6400 | 55 | > 6 | – | – | – | – | – | – | – | –
2 | C=CC(=O)NC1CCN(S(=O)(=O)c2ccc(C(=O)NCCc3ccccc3)cc2)CC1 | > 6 | – | – | – | – | > 6 | 180 | < 10 | 99 | 595 | 8.3 | 44 | – | –
3 | C=CC(=O)NC1CCN(S(=O)(=O)c2ccc(NC(=O)OCc3ccccc3)cc2)CC1 | 4 | 910 | 8900 | 3600 | – | > 6 | 280 | – | – | – | – | – | > 80000 | Stable
